Measurements published in US20220193043A1 (CIPLA LIMITED, priority 2019, published 2022).
Blank lines part the entries; values can stand above or below the compound they belong to.

Assays:
Staphylococcus aurues = settings: cited from earlier work
[1] = Procedure: Bioanalysis was performed using a fit-for-purpose LC-MS/MS method for the quantification of tenofovir in rat plasma samples. The calibration curve (CC) for the method consisted of nine non-zero calibration standards along with a double blank and zero standard samples. Study samples were analyzed along with three sets of quality control samples (18 QC samples; low, medium and high QC samples).
Plasma pharmacokinetic parameters were calculated using the non-compartmental analysis tool of Phoenix software (Version 6.3) and were determined from individual animals in each group. The peak plasma concentration (C), time to achieve peak plasma concentration (Tmax), the area under the plasma concentration-time curve (AUC0-t and AUCinf), AUC Extra (%), elimination half-life (T1/2), clearance (CL), volume of distribution Vd (L/kg) and Mean residence time (MRT) were calculated from intravenous group. The peak plasma concentration (C), time to achieve peak plasma concentration (T), AUC0-t and AUCinf, AUC Extra (%), Mean residence time (MRT) and absolute oral bioavailability (F) were calculated from the oral group.

[2] = cited from earlier work

Compound: COc1ccc2cc3[n+](cc2c1OC)CCc1cc2c(cc1-3)OCO2 [berberine]
antimicrobial activity (Staphylococcus aurues; berberine alone, in solution): very weak | increase of antimicrobial activity of berberine (Staphylococcus aurues; in combination with 5-Methoxy hydnocarpin (5-MIC), against Staphylococcus aurues): 200 folds

CLF_Obs(PO) ([1]; rat plasma, 3 mg/kg PO): 405 ± 189 mL/min/kg
Compound: [2H]C1([2H])N=C(Nc2c(Cl)ccc3nsnc23)NC1([2H])[2H] [Tizanidine D4]

AUCINF ([1]; rat, in vivo, po, 3 mg/kg): 111 ± 20 ng·h/mL | AUClast ([1]; rat, in vivo, po, 3 mg/kg): 106 ± 17.7 ng·h/mL | Vz/F_obs(PO) ([1]; rat, in vivo, po, 3 mg/kg): 71.9 ± 36.1 L/kg
Compound: Tizanidine hydrochloride [Tizanidine HCl]

Compound: Oc1ccc(C=Cc2cc(O)cc(O)c2)cc1 [resveratrol]
water solubility [2]: < 50 µg/mL
